Counter-ions that a name gives are not always drawn.
Target: T1, human FPTase (Homo sapiens, UniProt P49354+P49356)
T1 construct: made in house
Assay: In vitro inhibition of human farnesyl-protein transferase (FPTase)
Format: biochemical
Settings: [3H]-FPP, 100 nM Ras-CVIM, 30 min, read-out: IC50 (inhibitory activity against human FPTase)

Q: How did the IC50 turn out when `N#Cc1ccc(Cn2cncc2CN2CCN(c3cccc(Cl)c3)CC2=O)cc1` [Example 1, 4-(3-Chlorophenyl)-1-[1-(4-cyanobenzyl)-5-imidazolylmethyl]-2-piperazinone hydrochloride] was run?
A: ≤ 10 µM

— US5885995A, “Inhibitors of farnesyl-protein transferase” (Merck & Co., Inc., priority 1997, dated 1999)
